Measurements: US20100099614A1, “Antimicrobial Peptides and Methods of Use” (priority 2008, published 2010)

How the values were obtained:
[1] = test system: Gram-positive bacteria; conditions: gram-positive bacteria
[2] = Peptide hydrophobicity by RP-HPLC retention; type: physicochemical; conditions: 80° C., polar face substitution
Description: Peptide Synthesis and Purification—Syntheses of the peptides were carried out by solid-phase peptide synthesis using t-butyloxycarbonyl chemistry and MBHA (4-methylbenzhydrylamine) resin (0.97 mmol/g), followed by cleavage of the peptide from the resin as described previously (117-119). However, it is understood in the art that there are other suitable instruments and methods for automated or manual peptide synthesis that could be employed to produce the peptides described herein. Peptide purification was performed by reversed-phase high-performance liquid chromatography (RP-HPLC) on a Zorbax 300 SB-C8 column (250×9.4 mm I.D.; 6.5 μm particle size, 300 Å pore size; Agilent Technologies, Little Falls, Del.) with a linear AB gradient (0.1% acetonitrile/min) at a flow rate of 2 mL/min, where eluent A was 0.2% aqueous trifluoroacetic acid (TFA), pH 2, and eluent B was 0.2% TFA in acetonitrile, where the shallow 0.1% acetonitrile/min gradient started 12% below the acetonitrile concentration required to elute the peptide on injection of analytical sample using a gradient of 1% acetonitrile/min (113). The purity of the peptides was verified by analytical RP-HPLC as described below and further characterized by mass spectrometry and amino acid analysis. Crude and purified peptides were analyzed on an Agilent 1100 series liquid chromatograph. Runs were performed on a Zorbax 300 SB-C8 column (150×2.1 mm I.D.; 5 μm particle size, 300 Å pore size) from Agilent Technologies using a linear AB gradient (1% acetonitrile/min) and a flow rate of 0.25 mL/min, where eluent A was 0.2% aqueous TFA, pH 2, and eluent B was 0.2% TFA in acetonitrile.
Analytical RP-HPLC of Peptides—Peptides were analyzed on an Agilent 1100 series liquid chromatograph (Little Falls, Del.). Runs were performed on a Zorbax 300 SB-C8 column (150×2.1 mm I.D.; 5 μm particle size, 300 Å pore size) from Agilent Technologies using linear AB gradient (1% acetonitrile/min) and a flow rate of 0.25 ml/min, where solvent A was 0.05% aqueous TFA, pH 2 and solvent B was 0.05% TFA in acetonitrile. Temperature profiling analyses were performed in 3° C. increments, from 5° C. to 80° C.

[3] = Helical structure by circular dichroism spectroscopy; type: physicochemical
Description: The mean residue molar ellipticities of peptides were determined by circular dichroism (CD) spectroscopy, using a Jasco J-810 spectropolarimeter (Easton, Md.) at 5° C. under benign (non-denaturing) conditions (50 mM NaH2PO4/Na2HPO4/100 mM KCl, pH 7.0), hereafter referred to as benign buffer, as well as in the presence of an α-helix inducing solvent, 2,2,2-trifluoroethanol, TFE, (50 mM NaH2PO4/Na2HPO4/[…], pH 7.0 buffer/50% TFE). A 10-fold dilution of an approximately […] stock solution of the peptide analogs was loaded into a 0.1 cm quartz cell and its ellipticity scanned from 195 to 250 nm. The values of molar ellipticities of the peptide analogs at a wavelength of 222 nm were used to estimate the relative α-helicity of the peptides.

[4] = CD temperature denaturation study; type: physicochemical; conditions: 50% TFE
Description: CD Temperature Denaturation Study of Peptide V681—The native peptide V681 was dissolved in 0.05% aqueous TFA containing 50% TFE, pH 2, loaded into a 0.02 cm fused silica cell and peptide ellipticity scanned from 190 to 250 nm at temperatures of 5, 15, 25, 35, 45, 55, 65 and 80° C. The spectra at different temperatures were used to mimic the alteration of peptide conformation during temperature profiling analysis in RP-HPLC. The ratio of the molar ellipticity at a particular temperature (t) relative to that at 5° C. ([θ]t−[θ]u)/([θ]5−[θ]u) was calculated and plotted against temperature in order to obtain the thermal melting profiles, where [θ]5 and [θ]u represent the molar ellipticity values for the fully folded and fully unfolded species, respectively. […] was determined in the presence of 8M urea with a value of 1500 deg·cm^2·dmol^−1 to represent a totally random coil state (31). The melting temperature (Tm) was calculated as the temperature at which the α-helix was 50% denatured (([θ]t−[θ]u)/([θ]5−θ[θ]u)=0.5) and the values were taken as a measure of α-helix stability.

Ac-KWKSFLKTFKSAVKTVLHTALKAISS-NH2 [V681, reference compound]
geometric mean MIC [1]: 6.3 µg/mL | change in hydrophobicity (RP-HPLC retention) relative to PVL [2]: -0.35 min | [θ]222 in benign conditions ([3]; 100 mM KCl, 50 mM aq. PO4, pH 7): −12,900 | [θ]222 in 50% TFE ([3]; 50% TFE): −27,300 | α-helical content ([3]; 50% TFE): 94% | α-helical content ([3]; benign conditions): 45% | transition temperature Tm (50% of α-helical structure denatured) [4]: 79.3 °C
